{"source": "paper PMC7830597", "about": "“Derivatives of Tenuazonic Acid as Potential New Multi-Target Anti-Alzheimer’s Disease Agents” (Biomolecules, 2021)", "format_in_all_cases": "physicochemical", "key": {"[1]": {"assay": "Metal complexation, Zn(II)/L system", "conditions": "for log β(ZnmHhLl): potentiometric, 15% w/w DMSO/water", "experimental": "(§1) The chelating ability of compound 1 towards Fe(III), Cu(II) and Zn(II) was evaluated through the determination of the global formation constants of the complexes via pH-potentiometric and spectrophotometric titrations of the respective 1:1, 1:2 and 1:3 M/L systems in 15% w/w DMSO/water. The fitting analysis of the respective pH-potentiometric curves was done via Hyperquad 2008 [36] while that of the spectrophotometric absorption spectra was performed using Psequad, and the found equilibrium models are presented in Table 2. Compound 1 was chosen because of its better profile after preliminary assays (i.e., good AChE inhibition and antioxidant activity, as well as good ability to inhibit Cu^2+-induced Aβ aggregation).\nTo the best of our knowledge, the determination of stability formation constants of the complexes with TA has not yet been done and so the herein calculated values for compound 1 cannot be compared with those from the literature. The metal complexation equilibrium models of compound 1 were determined by the following process: for the Fe/L and Cu/L systems, only spectrophotometric data was used due to the better quality of the experimental results obtained [the 1:1 titration (e.g., Figure 7)] allowed the determination of the stability constant corresponding to the ML species and then this value, as well as the respective spectra, was introduced in the fitting of Fe/L 1:3 or Cu/L 1:2 data]; for the Zn/L system, potentiometric data was used. […]\nTitrations of the selected compound 1, alone or in the presence of the metal ions, were accomplished in a 15% w/w DMSO/H2O medium, at T = 25.0 ± 0.1 °C and ionic strength (I) 0.1 M KCl, by using 0.1 M KOH as titrant. Both glass and Ag/AgCl reference electrodes were previously conditioned in different DMSO/H2O mixtures of increasing DMSO % composition and the response of the glass electrode was evaluated by strong acid–strong base (HCl/KOH) calibrations with the determination of the Nernst parameters by Gran’s method. […]"}, "[2]": {"assay": "Metal complexation, Fe(III)/L system", "conditions": "for log β(FemHhLl): spectrophotometric, 15% w/w DMSO/water", "experimental": "as §1\n(§2) To the best of our knowledge, the determination of stability formation constants of the complexes with TA has not yet been done and so the herein calculated values for compound 1 cannot be compared with those from the literature. The metal complexation equilibrium models of compound 1 were determined by the following process: for the Fe/L and Cu/L systems, only spectrophotometric data was used due to the better quality of the experimental results obtained [the 1:1 titration (e.g., Figure 7)] allowed the determination of the stability constant corresponding to the ML species and then this value, as well as the respective spectra, was introduced in the fitting of Fe/L 1:3 or Cu/L 1:2 data]; for the Zn/L system, potentiometric data was used. For the found metal complex models contained in Table 2, MH-2L, MH-1L2 and MH-2L2 correspond to mixed ligand-hydroxo metal complexes.\n(§3) Titrations of the selected compound 1, alone or in the presence of the metal ions, were accomplished in a 15% w/w DMSO/H2O medium, at T = 25.0 ± 0.1 °C and ionic strength (I) 0.1 M KCl, by using 0.1 M KOH as titrant. Both glass and Ag/AgCl reference electrodes were previously conditioned in different DMSO/H2O mixtures of increasing DMSO % composition and the response of the glass electrode was evaluated by strong acid–strong base (HCl/KOH) calibrations with the determination of the Nernst parameters by Gran’s method. […] The spectrophotometric measurements were carried out in a 250–320 nm wavelength range at pH ca 2.5-8.0. Under the stated experimental conditions, the pKw value (13.6) was determined and subsequently used in the computations. The stepwise protonation constants of the ligands, Ki = [HiL]/[Hi-1L][H], and the overall metal–complex stability constants, β (MmHhL1) = [MmHhLl]/[M]^m[H]^h[L]^l, were calculated by fitting the pH-potentiometric and spectrophotometric data with, respectively, Hyperquad 2008 [36] and Psequad programs. The metal hydrolysis model was determined under the defined experimental conditions (I = 0.1 M KCl, 15% w/w DMSO/H2O, T = 25.0 ± 0.1 °C) and the following values of stability constants were included in the fitting of the experimental data towards the equilibrium models related to the Fe(III)/L, Cu(II)/L and Zn(II)/L systems: log β (FeH-1) = −1.79, log β (FeH-2) = −4.9, log β (FeH-4) = −20.0; log β (Cu2H-2) = −9.5; log β (ZnH-1) = −8.6, log β (ZnH-3) = −27.2, log β (Zn2H-1) = −8.6. The species distribution curves were obtained with the Hyss program."}, "Solubility in water": {"assay": "Solubility in water"}, "[3]": {"assay": "Metal complexation, Cu(II)/L system", "conditions": "for log β(CumHhLl): spectrophotometric, 15% w/w DMSO/water", "experimental": "as §1, §2, §3"}, "[4]": {"conditions": "pH 7.4, CL/CM = 10, CM = 10^−6 M"}}, "note": "Marks after values point to notes of the source that are not given here.", "data": [{"compound": "CCOC(=O)C1=C(O)C(C(C)C)NC1=O", "note": "(centres unmarked) [Compound 1, Ethyl 4-hydroxy-5-isopropyl-2-oxo-2,5-dihydro-1H-pyrrole-3-carboxylate]", "values": [{"measurement": "pZn (pM = −log[M])", "setting": "[1]; [4]", "result": 6.0}, {"measurement": "log β(ZnmHhLl)", "setting": "[1]; species (1-21)", "result": "−11.75(5) ^c"}, {"measurement": "log β(ZnmHhLl)", "setting": "[1]; species (101)", "result": "3.16(8) ^c"}, {"measurement": "pFe (pM = −log[M])", "setting": "[2]; [4]", "result": 16.6}, {"measurement": "log β(FemHhLl)", "setting": "[2]; species (1-22)", "result": "5.83(8) ^d"}, {"measurement": "log β(FemHhLl)", "setting": "[2]; species (101)", "result": "9.46(7) ^d"}, {"measurement": "log β(FemHhLl)", "setting": "[2]; species (102)", "result": "14.30(7) ^d"}, {"measurement": "log β(FemHhLl)", "setting": "[2]; species (103)", "result": "19.4(1) ^d"}, {"measurement": "solubility in water", "setting": "Solubility in water", "result": "insoluble in water"}, {"measurement": "Kd", "setting": "[3]; calculated at pH 7.4, read-out: conditional dissociation constant (K’d) for the copper complex", "result": 83, "unit": "µM"}, {"measurement": "pCu (pM = −log[M])", "setting": "[3]; [4]", "result": 11.6}, {"measurement": "log β(CumHhLl)", "setting": "[3]; species (1-12)", "result": "6.56(6) ^d"}, {"measurement": "log β(CumHhLl)", "setting": "[3]; species (1-21)", "result": "−4.15(7) ^d"}, {"measurement": "log β(CumHhLl)", "setting": "[3]; species (101)", "result": "4.08(8) ^d"}]}]}
